The text below walks through data of ChEMBL document CHEMBL4014314, “Rational Design of Bisubstrate-Type Analogues as Inhibitors of DNA Methyltransferases in Cancer Cells” (J Med Chem, 2017).

SMILES strings stand for the structures.

Assay [1] has as its target T1, DNA (cytosine-5)-methyltransferase 3A (Homo sapiens, UniProt Q9Y6K1). As to the kind of experiment: Inhibition of human DNMT3A catalytic domain using AdoMet assessed as reduction of methylation in 5'-biotin/3' 6-carboxyfluorescein labeled DNA duplex at CpG site at 32 uM after 1 hr by fluorescence assay relative to control.
For assay [2], the target named is T1, DNA (cytosine-5)-methyltransferase 3A. As to the kind of experiment: Inhibition of human DNMT3A catalytic domain using AdoMet assessed as reduction of methylation in 5'-biotin/3' 6-carboxyfluorescein labeled DNA duplex at CpG site at 10 uM after 1 hr by fluorescence assay relative to control.
For assay [3], the target named is T2, DNA (cytosine-5)-methyltransferase 1 (Homo sapiens, UniProt P26358). As to the kind of experiment: Inhibition of full length His-tagged human DNMT1 using SAM/[methyl-3H]SAM assessed as reduction of methylation in biotinylated hemimethylated DNA duplex at 32 uM after 1 hr by scintillation counting method relative to control.
T2 sequence (P26358 whole entry): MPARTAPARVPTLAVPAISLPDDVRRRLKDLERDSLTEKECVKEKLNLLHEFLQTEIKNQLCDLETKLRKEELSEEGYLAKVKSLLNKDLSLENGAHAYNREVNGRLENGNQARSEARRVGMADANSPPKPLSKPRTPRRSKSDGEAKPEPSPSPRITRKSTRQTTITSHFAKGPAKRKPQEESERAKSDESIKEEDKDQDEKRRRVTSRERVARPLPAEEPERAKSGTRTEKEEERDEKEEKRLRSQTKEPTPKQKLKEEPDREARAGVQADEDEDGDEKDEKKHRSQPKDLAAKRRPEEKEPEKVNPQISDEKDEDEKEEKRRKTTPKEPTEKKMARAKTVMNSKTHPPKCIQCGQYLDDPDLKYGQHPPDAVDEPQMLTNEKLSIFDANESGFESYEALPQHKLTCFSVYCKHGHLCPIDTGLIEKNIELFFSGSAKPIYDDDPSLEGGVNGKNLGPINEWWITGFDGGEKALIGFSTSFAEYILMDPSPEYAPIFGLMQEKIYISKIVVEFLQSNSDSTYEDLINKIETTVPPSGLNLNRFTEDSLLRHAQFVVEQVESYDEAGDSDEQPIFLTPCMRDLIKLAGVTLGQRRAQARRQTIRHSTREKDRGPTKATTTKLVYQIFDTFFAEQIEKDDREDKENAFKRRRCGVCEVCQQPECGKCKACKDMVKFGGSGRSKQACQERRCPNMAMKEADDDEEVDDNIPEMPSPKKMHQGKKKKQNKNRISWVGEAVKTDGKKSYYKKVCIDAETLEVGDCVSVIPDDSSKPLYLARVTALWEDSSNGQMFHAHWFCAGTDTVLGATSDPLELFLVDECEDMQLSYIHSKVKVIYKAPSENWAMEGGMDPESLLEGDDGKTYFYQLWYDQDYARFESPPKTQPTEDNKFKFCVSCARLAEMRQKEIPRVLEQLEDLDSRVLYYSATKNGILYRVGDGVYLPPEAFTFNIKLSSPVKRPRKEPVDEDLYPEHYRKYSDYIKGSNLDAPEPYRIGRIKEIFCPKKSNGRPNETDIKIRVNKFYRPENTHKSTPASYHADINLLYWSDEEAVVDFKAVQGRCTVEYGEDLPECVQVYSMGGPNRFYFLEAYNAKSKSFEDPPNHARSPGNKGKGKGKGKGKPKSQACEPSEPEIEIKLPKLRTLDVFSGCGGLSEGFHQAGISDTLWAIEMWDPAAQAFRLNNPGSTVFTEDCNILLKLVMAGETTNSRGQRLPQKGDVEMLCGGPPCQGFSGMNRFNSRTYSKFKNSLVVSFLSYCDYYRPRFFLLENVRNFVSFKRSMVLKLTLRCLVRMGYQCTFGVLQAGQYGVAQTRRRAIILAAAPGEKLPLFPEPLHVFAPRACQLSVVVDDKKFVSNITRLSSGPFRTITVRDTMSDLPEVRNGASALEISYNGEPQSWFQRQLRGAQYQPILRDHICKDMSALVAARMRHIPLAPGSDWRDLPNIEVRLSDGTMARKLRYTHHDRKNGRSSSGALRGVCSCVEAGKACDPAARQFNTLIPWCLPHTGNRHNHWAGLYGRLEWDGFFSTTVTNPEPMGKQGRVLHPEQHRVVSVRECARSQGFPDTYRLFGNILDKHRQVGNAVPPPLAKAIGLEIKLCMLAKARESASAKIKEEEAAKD
Assay [4] concerns the target T2, DNA (cytosine-5)-methyltransferase 1. The assay is described as follows: Inhibition of full length His-tagged human DNMT1 using SAM/[methyl-3H]SAM assessed as reduction of methylation in biotinylated hemimethylated DNA duplex at 100 uM after 1 hr by scintillation counting method relative to control.

T1 sequence (Q9Y6K1 whole entry, looked up, the tested form may be a part): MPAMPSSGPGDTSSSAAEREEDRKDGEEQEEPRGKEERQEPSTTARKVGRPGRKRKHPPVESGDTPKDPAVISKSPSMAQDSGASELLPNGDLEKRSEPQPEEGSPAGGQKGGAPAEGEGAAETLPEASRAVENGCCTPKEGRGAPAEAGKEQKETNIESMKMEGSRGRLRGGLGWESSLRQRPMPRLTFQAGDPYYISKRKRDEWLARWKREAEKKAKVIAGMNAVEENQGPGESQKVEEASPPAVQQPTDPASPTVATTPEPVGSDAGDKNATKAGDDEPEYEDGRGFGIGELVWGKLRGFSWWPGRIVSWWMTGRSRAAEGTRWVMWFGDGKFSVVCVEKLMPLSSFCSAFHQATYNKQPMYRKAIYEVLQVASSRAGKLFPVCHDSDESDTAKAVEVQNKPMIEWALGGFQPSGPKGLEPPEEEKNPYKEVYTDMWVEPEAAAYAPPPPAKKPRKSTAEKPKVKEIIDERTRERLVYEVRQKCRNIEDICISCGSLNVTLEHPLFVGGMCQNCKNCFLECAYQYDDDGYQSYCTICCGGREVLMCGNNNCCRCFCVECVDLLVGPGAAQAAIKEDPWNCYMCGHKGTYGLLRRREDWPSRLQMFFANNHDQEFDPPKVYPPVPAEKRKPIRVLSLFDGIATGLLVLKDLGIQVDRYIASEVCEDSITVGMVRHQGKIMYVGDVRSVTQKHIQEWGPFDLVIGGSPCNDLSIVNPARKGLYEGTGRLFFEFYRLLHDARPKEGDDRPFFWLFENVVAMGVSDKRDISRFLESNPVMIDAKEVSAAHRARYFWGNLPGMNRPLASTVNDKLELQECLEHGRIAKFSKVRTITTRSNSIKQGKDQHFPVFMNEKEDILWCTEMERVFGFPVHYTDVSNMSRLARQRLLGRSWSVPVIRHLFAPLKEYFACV

A word on the inhibition: it is the drop in the measured response relative to a control, in per cent. On to `Cc1cc(NCCN2CCC(COc3ccc4c(NCCCc5ccccc5)ncnc4c3)CC2)c2cccc(C)c2n1`, for which the inhibition was determined as 82% in assay [1], 81% in assay [2], 33% in assay [3] and 99% in assay [4].

As for `Clc1ccc2c(NCCN3CCC(COc4ccc5c(NCCCc6ccccc6)ncnc5c4)CC3)ccnc2c1`, the inhibition in assay [1] is 62%; in assay [2], 70%; in assay [3] it was 33%; in assay [4], 79%.

As to `c1ccc(CCCNc2ncnc3cc(OCC4CCN(c5ccnc6ccccc56)CC4)ccc23)cc1`, the inhibition in assay [1] was found to be 0%; in assay [2] it was 0%; in assay [3] it was 0%; in assay [4], 6%.

Turning to `c1ccc(CN2CCN(CCNc3ncnc4cc(OCC5CCN(CCNc6ccnc7ccccc67)CC5)ccc34)CC2)cc1`, the inhibition in assay [1] is 88%; in assay [2], 62%; in assay [3] it was 0%; in assay [4] it was 71%.

`c1ccc(CCCNc2ncnc3cc(OCC4CCN(CCNc5ccc6ncccc6c5)CC4)ccc23)cc1`: the inhibition turned out to be 60% in assay [1], 47% in assay [2], 0% in assay [3] and 16% in assay [4].

With `CN(CCN1CCC(COc2ccc3c(NCCCc4ccccc4)ncnc3c2)CC1)c1ccnc2ccccc12`, the inhibition in assay [1] was 66%; in assay [2], 53%; in assay [3], 10%; in assay [4] it was 57%.

`c1ccc(CCCNc2ncnc3cc(OCC4CCN(CCNc5cnc6ccccc6c5)CC4)ccc23)cc1`: the inhibition in assay [1] came to 45%; in assay [2] it was 38%; in assay [3] it was 0%; in assay [4], 12%.

For `Nc1ncnc2cc(OCC3CCN(CCNc4ccnc5ccccc45)CC3)ccc12`, the inhibition is 68% in assay [1], 16% in assay [2], 0% in assay [3] and 99% in assay [4].

In the case of `c1ccc(CCCNc2ncnc3cc(OCC4CCN(CCNc5ccc6ccccc6c5)CC4)ccc23)cc1`, the inhibition in assay [1], in assay [2], in assay [3] and in assay [4] was 0% in each case.

For the compound `c1ccc(CCCNc2ncnc3cc(OCCCNCCNc4ccnc5ccccc45)ccc23)cc1`, the inhibition in assay [1] came to 85%; in assay [2] it was 59%; in assay [3], 0%; in assay [4], 90%.

Regarding `c1ccc(CCCNc2ncnc3cc(OCC4CCN(CCNc5cccc6cnccc56)CC4)ccc23)cc1`, the inhibition in assay [1], in assay [2], in assay [3] and in assay [4] was 0% each time.

On to `c1ccc(CCCNc2ncnc3cc(OCC4CCN(CCNc5cccc6ncccc56)CC4)ccc23)cc1`, for which the inhibition turned out to be 60% in assay [1], 50% in assay [2], 0% in assay [3] and 0% in assay [4].

With `c1ccc(CCCNc2ncnc3cc(OCC4CCN(CCNc5ccncc5)CC4)ccc23)cc1`, the inhibition in assay [1] worked out at 72%; in assay [2], 47%; in assay [4], 34%.

As for `Cc1cc(Nc2ccc(NC(=O)c3ccc(Nc4ccnc5ccccc45)cc3)cc2)nc(N)n1`, the inhibition is 72% in assay [1] and 70% in assay [2].

With `COCn1ccc(NCCNCCCOc2ccc3c(NCCCc4ccccc4)ncnc3c2)nc1=O`, the inhibition in assay [1], in assay [2], in assay [3] and in assay [4] was 0% each time.

Take `c1ccc(CCCNc2ncnc3cc(OCCN4CCN(CCNc5ccnc6ccccc56)CC4)ccc23)cc1`: the inhibition in assay [1] was found to be 67%; in assay [2], 37%; in assay [3], 0%; in assay [4] it was 83%.

In the case of `Cc1cc(NCCN2CCC(COc3ccc4c(NCCCc5ccccc5)ncnc4c3)CC2)ccn1`, the inhibition is 58% in assay [1], 26% in assay [2], 13% in assay [3] and 55% in assay [4].

Regarding `Oc1ccc2c(NCCN3CCC(COc4ccc5c(NCCCc6ccccc6)ncnc5c4)CC3)ccnc2c1`, the inhibition in assay [1] came out at 72%; in assay [2] it was 74%; in assay [3], 0%; in assay [4], 59%.

As for `FC(F)(F)c1cc(NCCN2CCC(COc3ccc4c(NCCCc5ccccc5)ncnc4c3)CC2)c2ccccc2n1`, the inhibition in assay [1] is 0%; in assay [2] it was 0%; in assay [3] it was 0%; in assay [4], 13%.

As to `Cn1ccc2cc(NCCN3CCC(COc4ccc5c(NCCCc6ccccc6)ncnc5c4)CC3)ccc21`, the inhibition in assay [1] came to 90%; in assay [2] it was 74%; in assay [3], 21%; in assay [4], 50%.

As to `COc1ccc2c(NCCN3CCC(COc4ccc5c(NCCCc6ccccc6)ncnc5c4)CC3)ccnc2c1`, the inhibition in assay [1] was determined as 80%; in assay [2], 70%; in assay [3], 35%; in assay [4] it was 90%.

For `Oc1cc2nccc(NCCN3CCC(COc4ccc5c(NCCCc6ccccc6)ncnc5c4)CC3)c2cc1O`, the inhibition in assay [1] is 93%; in assay [2] it was 66%; in assay [3], 36%; in assay [4] it was 81%.

For `Nc1ccc(CCNc2ncnc3cc(OCC4CCN(CCNc5ccnc6ccccc56)CC4)ccc23)cc1`, the inhibition in assay [1] was 96%; in assay [2], 68%; in assay [3], 59%; in assay [4] it was 97%.

In the case of `FC(F)(F)c1ccc2c(NCCN3CCC(COc4ccc5c(NCCCc6ccccc6)ncnc5c4)CC3)ccnc2c1`, the inhibition amounted to 0% in assay [1], 0% in assay [2], 0% in assay [3] and 48% in assay [4].

Take `c1ccc(CNc2ncnc3cc(OCC4CCN(CCNc5ccnc6ccccc56)CC4)ccc23)cc1`: the inhibition in assay [1] turned out to be 81%; in assay [2], 43%; in assay [3], 22%; in assay [4] it was 26%.

As for `CN(C)c1ccc(NCCN2CCC(COc3ccc4c(NCCCc5ccccc5)ncnc4c3)CC2)c2ccccc12`, the inhibition in assay [1] was 77%; in assay [2], 66%; in assay [3] it was 8%; in assay [4] it was 15%.

Turning to `Fc1ccc2nccc(NCCN3CCC(COc4ccc5c(NCCCc6ccccc6)ncnc5c4)CC3)c2c1`, the inhibition in assay [1] came out at 82%; in assay [2] it was 0%; in assay [3], 0%; in assay [4], 79%.

Turning to `NS(=O)(=O)c1ccc(CCNc2ncnc3cc(OCC4CCN(CCNc5ccnc6ccccc56)CC4)ccc23)cc1`, the inhibition in assay [1] came out at 93%; in assay [2] it was 0%; in assay [3] it was 59%; in assay [4], 100%.

As for `c1ccc(CCCNc2ncnc3cc(OCC4CCN(CCNc5cncc6ccccc56)CC4)ccc23)cc1`, the inhibition came to 49% in assay [1], 35% in assay [2], 0% in assay [3] and 0% in assay [4].

As for `CCCNc1ncnc2cc(OCC3CCN(CCNc4ccnc5ccccc45)CC3)ccc12`, the inhibition in assay [1] stood at 69%; in assay [2], 28%; in assay [3], 0%; in assay [4], 95%.
